In series [1] the test system is NCI-H2228. Kind of series: Growth inhibition of human NCI-H2228 cells. It is filed as functional, cell-based.
The subject of series [2] is NCI-H3122. Briefly: Growth inhibition of human NCI-H3122 cells. It is filed as functional, cell-based.
In series [3] the test system is NCI-H2228. Kind of series: Antitumor activity against human NCI-H2228 cells harboring EML4-fused ALK variant xenografted in SCID Beige nude mouse assessed as tumor growth inhibition at 10 mg/kg, po administered once daily for 14 days measured twice per week for 21 days during compound dosing relative to control. It is filed as functional. The following applies: read-out: TGI. For orientation: In xenograft studies the graft and the host belong to different species.

For series [4], the target named is ALK tyrosine kinase receptor (Homo sapiens, UniProt Q9UM73). Kind of series: Inhibition of wild-type ALK (unknown origin).
Chain of ALK tyrosine kinase receptor (Homo sapiens, UniProt Q9UM73) (Q9UM73 whole entry): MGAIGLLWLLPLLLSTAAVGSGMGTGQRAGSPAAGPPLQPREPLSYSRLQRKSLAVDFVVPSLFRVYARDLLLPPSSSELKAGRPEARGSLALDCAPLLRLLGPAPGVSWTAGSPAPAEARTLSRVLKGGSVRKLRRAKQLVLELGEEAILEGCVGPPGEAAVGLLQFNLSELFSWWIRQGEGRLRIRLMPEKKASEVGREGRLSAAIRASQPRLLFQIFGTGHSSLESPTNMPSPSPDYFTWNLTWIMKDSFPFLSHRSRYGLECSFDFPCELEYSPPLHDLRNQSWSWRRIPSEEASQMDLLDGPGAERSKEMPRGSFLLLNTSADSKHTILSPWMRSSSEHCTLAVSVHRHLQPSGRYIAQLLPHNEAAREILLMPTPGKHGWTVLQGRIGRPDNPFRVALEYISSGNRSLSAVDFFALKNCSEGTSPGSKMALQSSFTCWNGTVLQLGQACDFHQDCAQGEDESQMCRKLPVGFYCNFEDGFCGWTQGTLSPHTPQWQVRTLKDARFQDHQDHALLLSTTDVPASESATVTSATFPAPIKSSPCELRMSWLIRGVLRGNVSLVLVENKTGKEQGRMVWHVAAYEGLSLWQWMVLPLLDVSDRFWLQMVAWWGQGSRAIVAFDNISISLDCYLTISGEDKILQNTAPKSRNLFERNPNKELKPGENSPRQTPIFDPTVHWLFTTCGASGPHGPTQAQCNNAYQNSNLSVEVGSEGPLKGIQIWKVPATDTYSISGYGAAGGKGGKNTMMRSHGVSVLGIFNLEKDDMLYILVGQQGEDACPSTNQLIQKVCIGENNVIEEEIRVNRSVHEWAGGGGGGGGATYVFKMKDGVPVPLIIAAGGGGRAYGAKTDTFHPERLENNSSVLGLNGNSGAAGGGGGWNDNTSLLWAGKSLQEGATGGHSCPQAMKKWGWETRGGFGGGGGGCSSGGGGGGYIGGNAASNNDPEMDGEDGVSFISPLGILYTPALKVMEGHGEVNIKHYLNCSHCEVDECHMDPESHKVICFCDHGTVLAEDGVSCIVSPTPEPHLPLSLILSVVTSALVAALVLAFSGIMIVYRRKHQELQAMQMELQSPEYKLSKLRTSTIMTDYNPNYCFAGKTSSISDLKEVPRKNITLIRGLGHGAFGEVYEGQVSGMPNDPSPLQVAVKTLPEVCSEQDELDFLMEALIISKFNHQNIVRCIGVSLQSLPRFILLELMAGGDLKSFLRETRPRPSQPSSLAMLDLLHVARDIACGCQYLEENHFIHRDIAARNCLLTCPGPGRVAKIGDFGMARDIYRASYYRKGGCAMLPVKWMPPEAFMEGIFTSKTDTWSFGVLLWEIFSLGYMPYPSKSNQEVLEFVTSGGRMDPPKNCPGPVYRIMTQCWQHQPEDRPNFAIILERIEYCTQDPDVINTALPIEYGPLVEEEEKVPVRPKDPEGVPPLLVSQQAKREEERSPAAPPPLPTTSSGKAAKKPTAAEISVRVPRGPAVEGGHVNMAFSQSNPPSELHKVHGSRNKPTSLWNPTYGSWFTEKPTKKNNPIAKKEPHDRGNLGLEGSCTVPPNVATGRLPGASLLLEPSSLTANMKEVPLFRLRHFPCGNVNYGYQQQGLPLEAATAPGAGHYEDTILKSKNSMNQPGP
Series [5] concerns the target ALK tyrosine kinase receptor (Homo sapiens, UniProt Q9UM73, L1196M). Briefly: Inhibition of ALK L1196M mutant (unknown origin).
The target of series [6] is ALK tyrosine kinase receptor (Homo sapiens, UniProt Q9UM73, F1174L). Kind of series: Inhibition of ALK F1174L mutant (unknown origin).
Chain of ALK tyrosine kinase receptor (Homo sapiens, UniProt Q9UM73, F1174L) (Q9UM73 19-1620 F1174L limits assumed): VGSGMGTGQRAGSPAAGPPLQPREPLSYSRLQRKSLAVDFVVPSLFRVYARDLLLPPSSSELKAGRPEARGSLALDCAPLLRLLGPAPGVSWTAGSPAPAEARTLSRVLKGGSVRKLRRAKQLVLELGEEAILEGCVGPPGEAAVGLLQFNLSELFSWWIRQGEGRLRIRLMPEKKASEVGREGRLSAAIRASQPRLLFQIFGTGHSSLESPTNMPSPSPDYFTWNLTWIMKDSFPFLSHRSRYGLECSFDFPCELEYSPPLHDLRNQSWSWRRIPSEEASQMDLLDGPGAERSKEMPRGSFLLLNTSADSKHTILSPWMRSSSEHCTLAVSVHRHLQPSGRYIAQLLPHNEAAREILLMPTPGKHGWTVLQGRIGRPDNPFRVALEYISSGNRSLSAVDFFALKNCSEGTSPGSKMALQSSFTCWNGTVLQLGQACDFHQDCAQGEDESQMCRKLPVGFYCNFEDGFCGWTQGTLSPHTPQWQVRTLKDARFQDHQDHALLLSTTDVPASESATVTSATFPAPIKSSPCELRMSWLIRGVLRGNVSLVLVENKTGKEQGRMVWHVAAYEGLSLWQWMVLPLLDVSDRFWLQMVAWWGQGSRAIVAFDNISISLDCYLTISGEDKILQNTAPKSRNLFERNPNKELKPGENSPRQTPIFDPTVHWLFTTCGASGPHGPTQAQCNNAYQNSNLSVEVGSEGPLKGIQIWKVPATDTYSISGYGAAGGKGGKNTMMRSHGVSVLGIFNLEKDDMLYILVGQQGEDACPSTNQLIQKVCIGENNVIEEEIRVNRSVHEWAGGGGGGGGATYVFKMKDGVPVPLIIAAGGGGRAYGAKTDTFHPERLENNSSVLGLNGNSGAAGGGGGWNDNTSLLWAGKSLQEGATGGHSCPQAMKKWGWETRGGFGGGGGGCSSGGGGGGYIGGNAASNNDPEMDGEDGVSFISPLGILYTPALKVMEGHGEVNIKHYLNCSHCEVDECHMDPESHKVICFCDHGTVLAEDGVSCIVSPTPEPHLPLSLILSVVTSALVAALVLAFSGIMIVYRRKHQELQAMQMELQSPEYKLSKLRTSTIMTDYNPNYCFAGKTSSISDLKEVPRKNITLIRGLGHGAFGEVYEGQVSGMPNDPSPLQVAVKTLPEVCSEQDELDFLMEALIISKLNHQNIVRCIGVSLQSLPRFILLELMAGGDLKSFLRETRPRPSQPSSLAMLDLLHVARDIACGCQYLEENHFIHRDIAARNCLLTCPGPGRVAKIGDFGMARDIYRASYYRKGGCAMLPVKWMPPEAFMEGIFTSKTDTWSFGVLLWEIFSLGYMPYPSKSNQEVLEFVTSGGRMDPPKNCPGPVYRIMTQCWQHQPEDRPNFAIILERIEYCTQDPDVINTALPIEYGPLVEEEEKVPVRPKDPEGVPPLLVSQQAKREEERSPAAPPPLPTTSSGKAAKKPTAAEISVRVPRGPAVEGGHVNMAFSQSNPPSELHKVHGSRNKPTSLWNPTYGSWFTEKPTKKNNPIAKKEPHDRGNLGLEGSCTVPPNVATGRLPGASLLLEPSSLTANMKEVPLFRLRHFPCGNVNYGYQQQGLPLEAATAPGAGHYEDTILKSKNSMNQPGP
The nature of series [7]: Toxicity in SCID Beige nude mouse xenografted with human NCI-H2228 cells harboring EML4-fused ALK variant assessed as change in body weight at 30 mg/kg, po administered once daily for 14 days and measured twice per week for 14 days during compound dosing. It is filed as organism-based. The following applies: in vivo, 336 h.
Series [8] has as its system NCI-H2228. Kind of series: Antitumor activity against human NCI-H2228 cells harboring EML4-fused ALK variant xenografted in SCID Beige nude mouse assessed as tumor growth inhibition at 30 mg/kg, po administered once daily for 14 days measured twice per week for 21 days during compound dosing relative to control. Format: functional. The following applies: read-out: TGI.

Series [9] is described as follows: Oral bioavailability in SCID Beige nude mouse xenografted with human NCI-H2228 cells harboring EML4-fused ALK variant at 3 to 30 mg/kg administered once daily for 14 days relative to control. Format: ADME, organism-based. The following applies: in vivo.
The nature of series [10]: Tmax in SCID Beige nude mouse xenografted with human NCI-H2228 cells harboring EML4-fused ALK variant at 3 to 30 mg/kg, po administered once daily for 14 days. Format: ADME, organism-based. The following applies: in vivo.
Series [11] can be described thus: Cmax in SCID Beige nude mouse xenografted with human NCI-H2228 cells harboring EML4-fused ALK variant at 3 to 30 mg/kg, po administered once daily for 14 days. It is filed as ADME, organism-based. The following applies: in vivo.
The nature of series [12]: AUC (0 to t) in SCID Beige nude mouse xenografted with human NCI-H2228 cells harboring EML4-fused ALK variant at 3 to 30 mg/kg, po administered once daily for 14 days. The following applies: in vivo, 336 h. Format: ADME, organism-based.
Series [13] relates to NCI-H2228. Kind of series: Antitumor activity against human NCI-H2228 cells harboring EML4-fused ALK variant xenografted in po dosed SCID Beige nude mouse assessed as tumor growth inhibition administered once daily for 14 days measured twice a week for 21 days during compound dosing. Format: functional, organism-based. The following applies: tested as the 2H-labelled form.

Chain of ALK tyrosine kinase receptor (Homo sapiens, UniProt Q9UM73, L1196M) (Q9UM73 19-1620 L1196M limits assumed): as the sequence (Q9UM73 19-1620 F1174L limits assumed) above, with L1156F, L1178M counted along it

In the case of `Cc1cc(Nc2ncc(Cl)c(Nc3ccccc3S(=O)(=O)C(C)C)n2)c(OC(C)C)cc1C1CCNCC1` [CERITINIB], the IC50 in series [1] came out at 97 nM; in [2] it was 27.2 nM. In addition, the inhibition in vivo at 10 mg/kg in series [3] was determined as 26%.

Consider `[2H]c1c(C)c(C2CCNCC2)cc(OC(C)C)c1Nc1ncc(Cl)c(Nc2ccccc2S(=O)(=O)C(C)C)n1`, for which the IC50 in series [1] turned out to be 98.5 nM; in [2] it was 24.7 nM.

`[2H]c1ccc(Nc2nc(Nc3cc(C)c(C4CCNCC4)cc3OC(C)C)ncc2Cl)c(S(=O)(=O)C(C)C)c1`: the IC50 in series [1] came out at 97 nM; in series [2], 28.5 nM.

On to `[2H]C([2H])([2H])Oc1cc(C2CCNCC2)c(C)cc1Nc1ncc(Cl)c(Nc2ccccc2S(=O)(=O)C(C)C)n1`, for which the IC50 in series [1] turned out to be 41.3 nM; in series [2], 4 nM; in series [4], 71 nM; in series [5], 18.7 nM; in series [6] it was 36.8 nM. In addition, the Activity result in series [7] is on record as “Non-Toxic”. The inhibition in vivo at 10 mg/kg in series [3] was 53%. The inhibition in vivo at 30 mg/kg in series [8] came out at 77%. Further, the bioavailability in series [9] is 60%. The Tmax in [10] lay within 6 to 8 h. This compound yielded a Cmax in [11] of 508 ng/mL. This compound yielded an AUCt in [12] of 6980 ng·h/mL.

Take `COc1cc(C2CCNCC2)c(C)cc1Nc1ncc(Cl)c(Nc2ccccc2S(=O)(=O)C(C)C)n1`: the TGI entry in series [13] is “Dose-dependent effect”.

Consider `[2H]C([2H])([2H])C([2H])(Oc1cc(C2CCNCC2)c(C)cc1Nc1ncc(Cl)c(Nc2ccccc2S(=O)(=O)C(C)C)n1)C([2H])([2H])[2H]`, for which the IC50 in [1] is 111 nM; in series [2], 28.4 nM.

Regarding `[2H]C([2H])([2H])C([2H])([2H])Oc1cc(C2CCNCC2)c(C)cc1Nc1ncc(Cl)c(Nc2ccccc2S(=O)(=O)C(C)C)n1`, the IC50 came out at 45.5 nM in [1]; 6 nM in [2]; 106 nM in series [4]; 37 nM in [5]; 51.6 nM in series [6].

What is called IC50 is the concentration at which inhibition is half-maximal. High values mean a need for much substance, low ones inhibition by little substance. What is called bioavailability is dose-corrected exposure relative to a reference, in per cent. A higher bioavailability goes with good availability. What is called Tmax is the time at which the peak concentration occurs. As usually defined, the Cmax is the peak of the concentration-time curve.

The values are drawn from ChEMBL document CHEMBL4387718, “Design, synthesis of orally bioavailable novel anaplastic lymphoma kinase (ALK) inhibitor diphenylaminopyrimidine analogs and efficacy study on NCI-H2228 xenografts mice model” (Bioorg Med Chem Lett, 2019).
